Results as given in the supplement of paper PMC10307832.

Assays:
Test in all cases: relative viability (nuclei count vs DMSO), 5 days (fraction); higher = more cells survive
[1] = compound: CCn1c(-c2nonc2N)nc2c(C#CC(C)(C)O)ncc(OC[C@H]3CCCNC3)c21 + Cc1nc(Nc2ncc(C(=O)Nc3c(C)cccc3Cl)s2)cc(N2CCN(CCO)CC2)n1 [Dasatinib] (partner 0.075 µM)
In short: (§1)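 Nuclei were stained with Hoechst during a one-step fixation (final 0.05% Triton X-100, 1% formaldehyde, 1 ug/ml Hoechst) carried out 5 days after dosing, then counted on 4× images. The cells, lung cancer lines in 1536-well plates, had been dosed by pin tool the day after seeding with one drug alone or a fixed anchor-drug dose plus five library-drug doses (not always all listed) in √10 steps. Relative viability is the nuclei count in treated wells divided by that in vehicle wells, and each value is the median of duplicate plates.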

BAM7 + Lapatinib = compound: CCOC1=CC=CC=C1N=NC2=C(NN(C2=O)C3=NC(=CS3)C4=CC=CC=C4)C [BAM7] + CS(=O)(=O)CCNCc1ccc(-c2ccc3ncnc(Nc4ccc(OCc5cccc(F)c5)c(Cl)c4)c3c2)o1 [Lapatinib] (partner 2 µM)
In short: as §1

[2] = compound: CCn1c(-c2nonc2N)nc2c(C#CC(C)(C)O)ncc(OC[C@H]3CCCNC3)c21 + CCNC(=O)c1noc(-c2cc(C(C)C)c(O)cc2O)c1-c1ccc(CN2CCOCC2)cc1 [Luminespib] (partner 0.01 µM)
In short: as §1

BAM7 + Navitoclax = compound: CCOC1=CC=CC=C1N=NC2=C(NN(C2=O)C3=NC(=CS3)C4=CC=CC=C4)C [BAM7] + CC1(C)CCC(c2ccc(Cl)cc2)=C(CN2CCN(c3ccc(C(=O)NS(=O)(=O)c4ccc(N[C@H](CCN5CCOCC5)CSc5ccccc5)c(S(=O)(=O)C(F)(F)F)c4)cc3)CC2)C1 [Navitoclax] (partner 0.5 µM)
In short: as §1

Cell Line	relative viability ([1]; first compound 0.01 µM)	relative viability ([1]; first compound 0.03162 µM)	relative viability ([1]; first compound 0.1 µM)	relative viability ([1]; first compound 0.3162 µM)	relative viability ([1]; first compound 1 µM)	relative viability (BAM7 + Lapatinib; first compound 0.5 µM)	relative viability (BAM7 + Lapatinib; first compound 5 µM)	relative viability (BAM7 + Lapatinib; first compound 15.81 µM)	relative viability (BAM7 + Lapatinib; first compound 50 µM)	relative viability ([2]; first compound 0.01 µM)	relative viability ([2]; first compound 0.03162 µM)	relative viability ([2]; first compound 0.1 µM)	relative viability ([2]; first compound 0.3162 µM)	relative viability ([2]; first compound 1 µM)	relative viability (BAM7 + Navitoclax; first compound 0.5 µM)	relative viability (BAM7 + Navitoclax; first compound 5 µM)	relative viability (BAM7 + Navitoclax; first compound 15.81 µM)	relative viability (BAM7 + Navitoclax; first compound 50 µM)
NCI-H2009	0.257	0.33	0.287	0.254	0.283	1.03	1.06	0.898	0.938	1.07	0.981	1.06	0.986	0.983	1.25	1.17	1.15	1.17
LOU-NH91	0.564	0.575	0.543	0.537	0.337	0.749	0.822	0.767	0.819	0.34	0.365	0.374	0.319	0.316	0.708	0.75	0.69	0.655
NCI-H2405	0.199	0.216	0.216	0.214	0.213	1.1	1.26	1.12	1.1	0.542	0.793	0.663	0.647	0.698	0.946	1.11	0.747	1
LCLC-97TM1	0.799	0.982	0.803	0.739	0.845	1	1.21	1.04	1.31	0.707	0.914	0.609	0.658	0.741	0.569	0.401	0.419	0.61
NCI-H596	0.641	0.67	0.563	0.48	0.554	0.984	1.14	1.01	1.12	1.06	1.13	1.17	0.935	1.13	0.82	0.937	0.92	1.06
NCI-H727	0.399	0.422	0.353	0.373	0.459	0.923	1.1	0.788	0.834	0.324	0.621	0.311	0.313	0.389	0.419	0.458	0.471	0.441
H3255	0.323	0.412	0.378	0.284	0.305	0.251	0.242	0.247	0.278	0.84	0.754	0.838	0.771	0.958	0.473	0.51	0.525	0.577
SK-MES-1	0.359	0.386	0.446	0.447	0.373	0.488	0.438	0.423	0.505	0.907	0.904	0.674	0.712	0.743	1.37	1.36	1.23	1.23
NCI-H1437	0.381	0.359	0.391	0.385	0.354	0.686	0.514	0.51	0.68	1.07	1.13	1.21	1.09	1.17	1.18	1.07	0.964	1.03
LU99A	0.499	0.508	0.662	0.51	0.451	0.975	0.788	1.09	1.03	0.254	0.21	0.239	0.307	0.248	0.787	0.849	0.72	0.821
HCC-827	0.242	0.34	0.296	0.354	0.335	0.205	0.2	0.205	0.202	0.533	0.895	0.729	0.476	0.633	1.06	1.04	0.914	0.939
LK-2	0.252	0.275	–	–	0.406	1.22	1.03	1.02	1.11	0.168	0.177	–	–	0.14	0.896	0.893	0.886	0.85
BEN	0.308	0.289	0.304	0.337	0.398	0.754	0.72	0.676	0.836	0.235	0.337	0.332	0.571	0.452	0.0506	0.068	0.0675	0.068
NCI-H23	0.798	0.631	0.795	1.05	0.884	1.48	1.1	0.997	1.26	0.235	0.202	0.242	0.219	0.237	0.978	0.846	0.921	0.934
NCI-H1395	0.448	0.387	0.395	0.393	0.386	0.826	1.03	1.17	1.33	0.78	0.705	0.546	0.596	0.695	1.15	1.14	1.1	1.13
201T	0.576	0.644	0.516	0.51	0.597	1.05	1.04	0.973	1.02	1.04	1.03	1.02	1.03	1.03	1.18	1.27	1.12	1.03
NCI-H2170	0.566	0.532	0.57	0.535	0.516	0.264	0.285	0.258	0.287	0.779	0.785	0.572	0.731	0.744	0.559	0.581	0.479	0.598
NCI-H460	0.526	0.461	0.533	0.45	0.516	0.904	1.13	0.953	1.03	0.0307	0.0313	0.0273	0.031	0.0375	1.36	1.36	1.03	1.08
HCC-15	0.57	0.548	0.651	0.482	0.532	0.912	0.896	0.908	0.865	0.291	0.26	0.468	0.345	0.268	0.751	0.768	0.683	0.707
EPLC-272H	0.357	0.413	0.382	0.334	0.397	0.879	0.924	0.94	0.963	0.228	0.141	0.311	0.262	0.309	1.32	1.21	1.15	1.17
